Test results taken from US8729095B2, “3-(biaryloxy)propionic acid derivatives for prevention and/or treatment of thromboembolic diseases” (Daiichi Sankyo Company, Limited, priority 2009, dated 2014).
pIC50: −log10 of the molar value.

Columns and labels:
[1] = tested on: platelet aggregation induced by ADP in rat platelet-rich plasma (PRP); assay: Platelet aggregation inhibitory activity during oral administration in a rat (ex vivo, ADP-induced); conditions: male Wistar rats, 1 mg/10 ml/kg orally, blood collected 4 hours after administration, ADP final concentration 3 μM, vs. control PRP (solvent only), read-out: Inhibition Rates (%)
Experimental: 1 mg/10 ml/kg of the test compound was orally administered by gavage to male rats (Slc: Wistar, age 8 to 9 weeks) that had been fasted overnight. 4 hours after administration, a syringe containing 1/10 volume of a 3.13% sodium citrate solution was used to collect blood from the abdominal aorta of a rat under anesthesia. From the collected blood, platelet-rich plasma (PRP) and platelet-poor plasma (PPP) were prepared according to the method described in the method for measuring human platelet aggregation inhibitory activity. PRP was left at rest at 16° C. for 30 minutes, and subsequently used for measurement.
200 μL of the separately collected PRP was dispensed into a cuvette for the aggregation test, followed by incubation at 37° C. for 2 minutes, and subsequently 2 μL of 0.3 mM ADP was added (final concentration 3 μM) to induce platelet aggregation.
Platelet aggregation was measured for 8 minutes using an aggregometer (MCM HEMA TRACER 313M; MC MEDICAL, INC.). With the light transmittance rate of PPP being set as an aggregation value of 100%, the maximum aggregation rate of PRP was determined, and compared with the maximum aggregation rate of control PRP (rat administered only with a solvent) to calculate inhibition rates.

[2] = tested on: platelet aggregation induced by ADP in human platelet-rich plasma (PRP); assay: Human platelet aggregation inhibitory activity (ADP-induced, platelet-rich plasma); format: cell-based; conditions: 8 min, ADP final concentration 20 μM, maximum aggregation rate, measured for 8 minutes
Experimental: A blood collecting syringe containing 1/10 volume of a 3.8% sodium citrate solution was used to collect blood from radial vein of a healthy person. The collected blood was centrifuged at 180×g at room temperature for 10 minutes to separate the supernatant (platelet-rich plasma; PRP). After PRP was separately collected, the remaining blood was centrifuged at 1,600×g for 10 minutes to separately collect platelet-poor plasma (PPP) of the upper layer. PRP was left at rest at 16° C. for 30 minutes, and subsequently used for measurement.
200 μL of the separately collected PRP was dispensed into a cuvette for the aggregation test, and 1 μL of dimethylsulfoxide (control) or a test compound solution diluted with dimethylsulfoxide was added, followed by incubation at 37° C. for 2 minutes. Subsequently, 2 μL of 2 mM ADP was added (final concentration 20 μM) to induce platelet aggregation.
Platelet aggregation was measured for 8 minutes using an aggregometer (MCM HEMA TRACER 313M; MC MEDICAL, INC.). With the light transmittance rate of PPP being set as an aggregation value of 100%, the maximum aggregation rate was determined for each concentration of the test compounds to calculate IC50 values.

Question: `C[C@H](CC(=O)O)Oc1cc(F)ccc1-c1ccc(C(=O)N2CCC(N3C(=O)C(C)(C)Oc4ncc(Cl)cc43)CC2)c(F)c1` [Example 35, (3R)-3-[(4′-{[4-(7-Chloro-3,3-dimethyl-2-oxo-2,3-dihydro-1H-pyrido[2,3-b][1,4]oxazin-1-yl)piperidin-1-yl]carbonyl}-3′,4-difluorobiphenyl-2-yl)oxy]butanoic acid] was tested. Which inhibition at 1 mg/kg [1] did it give?
Answer: The inhibition at 1 mg/kg was 96%.

Question: And the pIC50 [2]?
Answer: The pIC50 was 5.44.

Question: How did the inhibition at 1 mg/kg [1] turn out when `Cc1cc(-c2ccccc2O[C@H](C)CC(=O)O)ccc1C(=O)N1CCC(N2C(=O)C(C)(C)Cc3ncc(Cl)cc32)CC1` [Example 36, (3R)-3-[(4′-{[4-(7-Chloro-3,3-dimethyl-2-oxo-3,4-dihydro-1,5-naphthyridin-1(2H)-yl)piperidin-1-yl]carbonyl}-3′-methylbiphenyl-2-yl)oxy]butanoic acid] was run?
Answer: Its inhibition at 1 mg/kg is 47%.

Question: What about the pIC50 [2] of the same compound?
Answer: The pIC50 was 5.28.

Question: What does the source list for `C[C@@H]1Oc2ncc(Cl)cc2N(C2CCN(C(=O)c3ccc(-c4ccccc4OC[C@H](C)C(=O)O)cc3F)CC2)C1=O` [Example 24, (2S)-3-{[4′-({4-[(3S)-7-Chloro-3-methyl-2-oxo-2,3-dihydro-1H-pyrido[2,3-b][1,4]oxazin-1-yl]piperidin-1-yl}carbonyl)-3′-fluorobiphenyl-2-yl]oxy}-2-methylpropanoic acid]?
Answer: inhibition at 1 mg/kg [1]: 44%; pIC50 [2]: 5.51

Question: How did the inhibition at 1 mg/kg [1] turn out when `C[C@@H](COc1ccccc1-c1cnc(C(=O)N2CCC(N3C(=O)C(C)(C)Cc4ncc(Cl)cc43)CC2)c(F)c1)C(=O)O` [Example 46, (2S)-3-[2-(6-{[4-(7-Chloro-3,3-dimethyl-2-oxo-3,4-dihydro-1,5-naphthyridin-1(2H)-yl)piperidin-1-yl]carbonyl}-5-fluoropyridin-3-yl)phenoxy]-2-methylpropanoic acid] was run?
Answer: Its inhibition at 1 mg/kg is 31%.

Question: And the pIC50 [2]?
Answer: Its pIC50 is 5.74.

Question: What does the source list for `Cc1ccc(-c2ccc(C(=O)N3CCC(N4C(=O)C(C)(C)Oc5ncc(Cl)cc54)CC3)c(F)c2)c(O[C@H](C)CC(=O)O)c1` [Example 55, (3R)-3-[(4′-{[4-(7-Chloro-3,3-dimethyl-2-oxo-2,3-dihydro-1H-pyrido[2,3-b][1,4]oxazin-1-yl)piperidin-1-yl]carbonyl}-3′-fluoro-4-methylbiphenyl-2-yl)oxy]butanoic acid]?
Answer: inhibition at 1 mg/kg [1]: 68%; pIC50 [2]: 5.08

Question: `CCc1cnc2c(c1)N(C1CCN(C(=O)c3ccc(-c4ccccc4O[C@H](C)CC(=O)O)cc3F)CC1)C(=O)C(C)(C)O2` [Example 53, (3R)-3-[(4′-{[4-(7-Ethyl-3,3-dimethyl-2-oxo-2,3-dihydro-1H-pyrido[2,3-b][1,4]oxazin-1-yl)piperidin-1-yl]carbonyl}-3′-fluorobiphenyl-2-yl)oxy]butanoic acid] was tested. Which inhibition at 1 mg/kg [1] did it give?
Answer: The inhibition at 1 mg/kg was 44%.

Question: And the pIC50 [2]?
Answer: The pIC50 was 5.19.

Question: How did the inhibition at 1 mg/kg [1] turn out when `C[C@H](CC(=O)O)Oc1ccccc1-c1cnc(C(=O)N2CCC(N3C(=O)C(C)(C)Cc4ncc(Cl)cc43)CC2)c(F)c1` [Example 38, (3R)-3-[2-(6-{[4-(7-Chloro-3,3-dimethyl-2-oxo-3,4-dihydro-1,5-naphthyridin-1(2H)-yl)piperidin-1-yl]carbonyl}-5-fluoropyridin-3-yl)phenoxy]butanoic acid] was run?
Answer: Its inhibition at 1 mg/kg is 52%.

Question: What about the pIC50 [2] of the same compound?
Answer: Its pIC50 is 5.70.

Question: Which inhibition at 1 mg/kg [1] does the source give for `C[C@H](CC(=O)O)Oc1ccc(F)cc1-c1cnc(C(=O)N2CCC(N3C(=O)C(C)(C)Oc4ncc(Cl)cc43)CC2)c(F)c1` [Example 42, (3R)-3-[2-(6-{[4-(7-Chloro-3,3-dimethyl-2-oxo-2,3-dihydro-1H-pyrido[2,3-b][1,4]oxazin-1-yl)piperidin-1-yl]carbonyl}-5-fluoropyridin-3-yl)-4-fluorophenoxy]butanoic acid] here?
Answer: The inhibition at 1 mg/kg was 54%.

Question: What about the pIC50 [2] of the same compound?
Answer: The pIC50 was 5.85.

Question: `C[C@H](CC(=O)O)Oc1ccc(F)cc1-c1ccc(C(=O)N2CCC(N3C(=O)C(C)(C)Oc4ncc(Cl)cc43)CC2)c(F)c1` [Example 13, (3R)-3-[(4′-{[4-(7-Chloro-3,3-dimethyl-2-oxo-2,3-dihydro-1H-pyrido[2,3-b][1,4]oxazin-1-yl)piperidin-1-yl]carbonyl}-3′,5-difluorobiphenyl-2-yl)oxy]butanoic acid] was tested. Which inhibition at 1 mg/kg [1] did it give?
Answer: Its inhibition at 1 mg/kg is 63%.

Question: What about the pIC50 [2] of the same compound?
Answer: The pIC50 was 5.39.

Question: With `C[C@H](CC(=O)O)Oc1ccccc1-c1cc(F)c(C(=O)N2CCC(N3C(=O)C(C)(C)Oc4ncc(Cl)cc43)CC2)cc1F` [Example 34, (3R)-3-[(4′-{[4-(7-Chloro-3,3-dimethyl-2-oxo-2,3-dihydro-1H-pyrido[2,3-b][1,4]oxazin-1-yl)piperidin-1-yl]carbonyl}-2′,5′-difluorobiphenyl-2-yl)oxy]butanoic acid] as the compound, how does the inhibition at 1 mg/kg [1] read?
Answer: The inhibition at 1 mg/kg was 55%.

Question: What about the pIC50 [2] of the same compound?
Answer: The pIC50 was 5.64.

Question: Which inhibition at 1 mg/kg [1] does the source give for `C[C@@H]1Oc2ncc(Cl)cc2N(C2CCN(C(=O)c3ccc(-c4ccccc4OCC(C)(C)C(=O)O)cc3F)CC2)C1=O` [Example 2, 3-{[4′-({4-[(3S)-7-Chloro-3-methyl-2-oxo-2,3-dihydro-1H-pyrido[2,3-b][1,4]oxazin-1-yl]piperidin-1-yl}carbonyl)-3′-fluorobiphenyl-2-yl]oxy}-2,2-dimethylpropanoic acid] here?
Answer: The inhibition at 1 mg/kg was 66%.

Question: And the pIC50 [2]?
Answer: The pIC50 was 5.46.

Question: Which results are given for `Cc1cc(-c2cc(F)ccc2O[C@H](C)CC(=O)O)ccc1C(=O)N1CCC(N2C(=O)C(C)(C)Cc3ncc(Cl)cc32)CC1` [Example 45, (3R)-3-[(4′-{[4-(7-Chloro-3,3-dimethyl-2-oxo-3,4-dihydro-1,5-naphthyridin-1(2H)-yl)piperidin-1-yl]carbonyl}-5-fluoro-3′-methylbiphenyl-2-yl)oxy]butanoic acid]?
Answer: inhibition at 1 mg/kg [1]: 51%; pIC50 [2]: 4.96

Question: What does the source list for `C[C@@H](Oc1ccccc1-c1ccc(C(=O)N2CCC(N3C(=O)C(C)(C)Oc4ncc(Cl)cc43)CC2)c(F)c1)[C@@H](C)C(=O)O` [Example 9, (2R,3R)-3-[(4′-{[4-(7-Chloro-3,3-dimethyl-2-oxo-2,3-dihydro-1H-pyrido[2,3-b][1,4]oxazin-1-yl)piperidin-1-yl]carbonyl}-3′-fluorobiphenyl-2-yl)oxy]-2-methylbutanoic acid]?
Answer: inhibition at 1 mg/kg [1]: 52%; pIC50 [2]: 5.68

Question: What does the source list for `C[C@@H](COc1ccccc1-c1ccc(C(=O)N2CCC(N3C(=O)C(C)(C)Cc4ncc(Cl)cc43)CC2)c(F)c1)C(=O)O` [Example 11, (2S)-3-[(4′-{[4-(7-Chloro-3,3-dimethyl-2-oxo-3,4-dihydro-1,5-naphthyridin-1(2H)-yl)piperidin-1-yl]carbonyl}-3′-fluorobiphenyl-2-yl)oxy]-2-methylpropanoic acid]?
Answer: inhibition at 1 mg/kg [1]: 45%; pIC50 [2]: 5.21

Question: What does the source list for `C[C@H](CC(=O)O)Oc1ccc(F)cc1-c1ccc(C(=O)N2CCC(N3C(=O)[C@H](C)Oc4ncc(Cl)cc43)CC2)c(F)c1` [Example 29, (3R)-3-{[4′-({4-[(3S)-7-Chloro-3-methyl-2-oxo-2,3-dihydro-1H-pyrido[2,3-b][1,4]oxazin-1-yl]piperidin-1-yl}carbonyl)-3′,5-difluorobiphenyl-2-yl]oxy}butanoic acid]?
Answer: inhibition at 1 mg/kg [1]: 75%; pIC50 [2]: 5.37

Question: Which results are given for `C[C@@H](COc1ccc(F)cc1-c1ccc(C(=O)N2CCC(N3C(=O)C(C)(C)Oc4ncc(Cl)cc43)CC2)c(F)c1)C(=O)O` [Example 27, (2S)-3-[(4′-{[4-(7-Chloro-3,3-dimethyl-2-oxo-2,3-dihydro-1H-pyrido[2,3-b][1,4]oxazin-1-yl)piperidin-1-yl]carbonyl}-3′,5-difluorobiphenyl-2-yl)oxy]-2-methylpropanoic acid]?
Answer: inhibition at 1 mg/kg [1]: 36%; pIC50 [2]: 5.19

Question: For `Cc1cc(-c2cc(F)ccc2O[C@H](C)CC(=O)O)ccc1C(=O)N1CCC(N2C(=O)C(C)(C)Oc3ncc(Cl)cc32)CC1` [Example 17, (3R)-3-[(4′-{[4-(7-Chloro-3,3-dimethyl-2-oxo-2,3-dihydro-1H-pyrido[2,3-b][1,4]oxazin-1-yl)piperidin-1-yl]carbonyl}-5-fluoro-3′-methylbiphenyl-2-yl)oxy]butanoic acid], which inhibition at 1 mg/kg [1] is on record?
Answer: Its inhibition at 1 mg/kg is 52%.

Question: And the pIC50 [2]?
Answer: Its pIC50 is 5.01.

Question: Which inhibition at 1 mg/kg [1] does the source give for `C[C@H](CC(=O)O)Oc1ccccc1-c1ccc(C(=O)N2CCC(N3C(=O)C(C)(C)Oc4ncc(C#N)cc43)CC2)c(F)c1` [Example 52, (3R)-3-[(4′-{[4-(7-Cyano-3,3-dimethyl-2-oxo-2,3-dihydro-1H-pyrido[2,3-b][1,4]oxazin-1-yl)piperidin-1-yl]carbonyl}-3′-fluorobiphenyl-2-yl)oxy]butanoic acid] here?
Answer: Its inhibition at 1 mg/kg is 71%.

Question: And the pIC50 [2]?
Answer: The pIC50 was 5.64.

Question: Which inhibition at 1 mg/kg [1] does the source give for `C[C@@H](COc1ccccc1-c1ccc(C(=O)N2CCC(N3C(=O)C(C)(C)Oc4ncc(Cl)cc43)CC2)c(F)c1)C(=O)O` [Example 25, (2S)-3-[(4′-{[4-(7-Chloro-3,3-dimethyl-2-oxo-2,3-dihydro-1H-pyrido[2,3-b][1,4]oxazin-1-yl)piperidin-1-yl]carbonyl}-3′-fluorobiphenyl-2-yl)oxy]-2-methylpropanoic acid] here?
Answer: The inhibition at 1 mg/kg was 46%.

Question: What about the pIC50 [2] of the same compound?
Answer: The pIC50 was 5.29.
